# Calls of active or inactive are those of the source.
# Tests used:
# [1] = tested on: Rattus norvegicus; assay: Analgesic activity in Sprague-Dawley rat brewer's yeast treated foot assessed as response threshold at 8 mg/kg, po; type: functional
# [2] = tested on: Rattus norvegicus; assay: Analgesic activity in Sprague-Dawley rat normal foot assessed as response threshold at 8 to 16 mg/kg, po; type: functional; conditions: dose mg/kg 8-16
# [3] = tested on: Rattus norvegicus; assay: Analgesic activity in Sprague-Dawley rat assessed as increase in mean reaction time at 5 mg/kg, po after 1 hr relative to control; type: functional
# [4] = tested on: Rattus norvegicus; assay: Analgesic activity in Sprague-Dawley rat assessed as increase in mean reaction time at 5 mg/kg, po after 2 hrs relative to control; type: functional
# [5] = tested on: Rattus norvegicus; assay: Analgesic activity in Sprague-Dawley rat assessed as increase in mean reaction time at 5 mg/kg, po after 3 hrs relative to control; type: functional
# [6] = tested on: Rattus norvegicus; assay: Analgesic activity in Sprague-Dawley rat assessed as increase in mean reaction time at 5 mg/kg, po after 4 hrs relative to control; type: functional
# [7] = tested on: Rattus norvegicus; assay: Analgesic activity in Sprague-Dawley rat assessed as increase in mean reaction time at 5 mg/kg, po after 5 hrs relative to control; type: functional
# [8] = tested on: Rattus norvegicus; assay: Analgesic activity in Sprague-Dawley rat assessed as increase in mean reaction time at 10 mg/kg, po after 1 hr relative to control; type: functional
# [9] = tested on: Rattus norvegicus; assay: Analgesic activity in Sprague-Dawley rat assessed as increase in mean reaction time at 10 mg/kg, po after 2 hrs relative to control; type: functional
# [10] = tested on: Rattus norvegicus; assay: Analgesic activity in Sprague-Dawley rat assessed as increase in mean reaction time at 10 mg/kg, po after 3 hrs relative to control; type: functional
# [11] = tested on: Rattus norvegicus; assay: Analgesic activity in Sprague-Dawley rat assessed as increase in mean reaction time at 10 mg/kg, po after 4 hrs relative to control; type: functional
# [12] = tested on: Rattus norvegicus; assay: Analgesic activity in Sprague-Dawley rat assessed as increase in mean reaction time at 10 mg/kg, po after 5 hrs relative to control; type: functional
# [13] = tested on: Rattus norvegicus; assay: Analgesic activity in Sprague-Dawley rat assessed as increase in mean reaction time at 20 mg/kg, po after 1 hr relative to control; type: functional
# [14] = tested on: Rattus norvegicus; assay: Analgesic activity in Sprague-Dawley rat assessed as increase in mean reaction time at 20 mg/kg, po after 2 hrs relative to control; type: functional
# [15] = tested on: Rattus norvegicus; assay: Analgesic activity in Sprague-Dawley rat assessed as increase in mean reaction time at 20 mg/kg, po after 3 hrs relative to control; type: functional
# [16] = tested on: Rattus norvegicus; assay: Analgesic activity in Sprague-Dawley rat assessed as increase in mean reaction time at 20 mg/kg, po after 4 hrs relative to control; type: functional
# [17] = tested on: Rattus norvegicus; assay: Analgesic activity in Sprague-Dawley rat assessed as increase in mean reaction time at 20 mg/kg, po after 5 hrs relative to control; type: functional
# [18] = tested on: Rattus norvegicus; assay: Analgesic activity in Sprague-Dawley rat hyperesthesia model inflamed foot assessed as mean pain reaction threshold at 5 mg/kg, po after 1 hr; type: functional
# [19] = tested on: Rattus norvegicus; assay: Analgesic activity in Sprague-Dawley rat hyperesthesia model inflamed foot assessed as mean pain reaction threshold at 10 mg/kg, po after 1 hr; type: functional
# [20] = tested on: Rattus norvegicus; assay: Analgesic activity in Sprague-Dawley rat hyperesthesia model inflamed foot assessed as mean pain reaction threshold at 20 mg/kg, po after 1 hr; type: functional
# [21] = tested on: Rattus norvegicus; assay: Analgesic activity in Sprague-Dawley rat hyperesthesia model normal foot assessed as mean pain reaction threshold at 5 mg/kg, po after 1 hr; type: functional
# [22] = tested on: Rattus norvegicus; assay: Analgesic activity in Sprague-Dawley rat hyperesthesia model normal foot assessed as mean pain reaction threshold at 10 mg/kg, po after 1 hr; type: functional
# [23] = tested on: Rattus norvegicus; assay: Analgesic activity in Sprague-Dawley rat hyperesthesia model normal foot assessed as mean pain reaction threshold at 20 mg/kg, po after 1 hr; type: functional
# [24] = tested on: Rattus norvegicus; assay: Analgesic activity in naloxone treated Sprague-Dawley rat hyperesthesia model inflamed foot assessed as mean pain reaction threshold at 5 mg/kg, po after 1 hr; type: functional
# [25] = tested on: Rattus norvegicus; assay: Analgesic activity in naloxone treated Sprague-Dawley rat hyperesthesia model inflamed foot assessed as mean pain reaction threshold at 10 mg/kg, po after 1 hr; type: functional
# [26] = tested on: Rattus norvegicus; assay: Analgesic activity in naloxone treated Sprague-Dawley rat hyperesthesia model inflamed foot assessed as mean pain reaction threshold at 20 mg/kg, po after 1 hr; type: functional
# [27] = tested on: Rattus norvegicus; assay: Analgesic activity in naloxone treated Sprague-Dawley rat hyperesthesia model normal foot assessed as mean pain reaction threshold at 5 mg/kg, po after 1 hr; type: functional
# [28] = tested on: Rattus norvegicus; assay: Analgesic activity in naloxone treated Sprague-Dawley rat hyperesthesia model normal foot assessed as mean pain reaction threshold at 10 mg/kg, po after 1 hr; type: functional
# [29] = tested on: Rattus norvegicus; assay: Analgesic activity in naloxone treated Sprague-Dawley rat hyperesthesia model normal foot assessed as mean pain reaction threshold at 20 mg/kg, po after 1 hr; type: functional
# [30] = tested on: Rattus norvegicus; assay: Antiinflammatory activity in Sprague-Dawley rat assessed as inhibition of carrageenan-induced paw edema at 30 mg/kg, po; type: functional
# [31] = tested on: Rattus norvegicus; assay: Antiarthritic activity in Lewis rat assessed as inhibition of adjuvant-induced paw swelling at 50 mg/kg, po qd for 13 days measured on day 14; type: functional
# [32] = tested on: Rattus norvegicus; assay: Analgesic activity in Sprague-Dawley rat brewer's yeast treated foot assessed as response threshold at 16 to 32 mg/kg, po; type: functional; conditions: dose mg/kg 16-32
# [33] = tested on: Rattus norvegicus; assay: Analgesic activity in Sprague-Dawley rat normal foot assessed as response threshold at 32 mg/kg, po; type: functional
# [34] = tested on: Rattus norvegicus; assay: Analgesic activity in Sprague-Dawley rat assessed as increase in mean reaction time at 30 mg/kg, po after 1 hr relative to control; type: functional
# [35] = tested on: Rattus norvegicus; assay: Analgesic activity in Sprague-Dawley rat assessed as increase in mean reaction time at 30 mg/kg, po after 2 hrs relative to control; type: functional
# [36] = tested on: Rattus norvegicus; assay: Analgesic activity in Sprague-Dawley rat assessed as increase in mean reaction time at 30 mg/kg, po after 3 hrs relative to control; type: functional
# [37] = tested on: Rattus norvegicus; assay: Analgesic activity in Sprague-Dawley rat assessed as increase in mean reaction time at 30 mg/kg, po after 4 hrs relative to control; type: functional
# [38] = tested on: Rattus norvegicus; assay: Analgesic activity in Sprague-Dawley rat assessed as increase in mean reaction time at 30 mg/kg, po after 5 hrs relative to control; type: functional
# [39] = tested on: Rattus norvegicus; assay: Analgesic activity in Sprague-Dawley rat assessed as increase in mean reaction time at 60 mg/kg, po after 1 hr relative to control; type: functional
# [40] = tested on: Rattus norvegicus; assay: Analgesic activity in Sprague-Dawley rat assessed as increase in mean reaction time at 60 mg/kg, po after 2 hrs relative to control; type: functional
# [41] = tested on: Rattus norvegicus; assay: Analgesic activity in Sprague-Dawley rat assessed as increase in mean reaction time at 60 mg/kg, po after 3 hrs relative to control; type: functional
# [42] = tested on: Rattus norvegicus; assay: Analgesic activity in Sprague-Dawley rat assessed as increase in mean reaction time at 60 mg/kg, po after 4 hrs relative to control; type: functional
# [43] = tested on: Rattus norvegicus; assay: Analgesic activity in Sprague-Dawley rat assessed as increase in mean reaction time at 60 mg/kg, po after 5 hrs relative to control; type: functional
# [44] = tested on: Rattus norvegicus; assay: Analgesic activity in Sprague-Dawley rat assessed as increase in mean reaction time at 120 mg/kg, po after 1 hr relative to control; type: functional
# [45] = tested on: Rattus norvegicus; assay: Analgesic activity in Sprague-Dawley rat assessed as increase in mean reaction time at 120 mg/kg, po after 2 hrs relative to control; type: functional
# [46] = tested on: Rattus norvegicus; assay: Analgesic activity in Sprague-Dawley rat assessed as increase in mean reaction time at 120 mg/kg, po after 3 hrs relative to control; type: functional
# [47] = tested on: Rattus norvegicus; assay: Analgesic activity in Sprague-Dawley rat assessed as increase in mean reaction time at 120 mg/kg, po after 4 hrs relative to control; type: functional
# [48] = tested on: Rattus norvegicus; assay: Analgesic activity in Sprague-Dawley rat assessed as increase in mean reaction time at 120 mg/kg, po after 5 hrs relative to control; type: functional
# [49] = tested on: Rattus norvegicus; assay: Analgesic activity in Sprague-Dawley rat assessed as increase in mean reaction time at 90 mg/kg, po after 1 hr relative to control; type: functional
# [50] = tested on: Rattus norvegicus; assay: Analgesic activity in Sprague-Dawley rat assessed as increase in mean reaction time at 90 mg/kg, po after 2 hrs relative to control; type: functional
# [51] = tested on: Rattus norvegicus; assay: Analgesic activity in Sprague-Dawley rat assessed as increase in mean reaction time at 90 mg/kg, po after 3 hrs relative to control; type: functional
# [52] = tested on: Rattus norvegicus; assay: Analgesic activity in Sprague-Dawley rat assessed as increase in mean reaction time at 90 mg/kg, po after 4 hrs relative to control; type: functional
# [53] = tested on: Rattus norvegicus; assay: Analgesic activity in Sprague-Dawley rat assessed as increase in mean reaction time at 90 mg/kg, po after 5 hrs relative to control; type: functional
# [54] = tested on: Rattus norvegicus; assay: Toxicity in Sprague-Dawley rat assessed as sedation at 90 mg/kg, po after 1 hr relative to control; type: organism-based; parameters: dose 90 mg/kg, route oral; conditions: in vivo
# [55] = tested on: Rattus norvegicus; assay: Toxicity in Sprague-Dawley rat assessed as sedation at 90 mg/kg, po after 2 hrs relative to control; type: organism-based; parameters: dose 90 mg/kg, route oral; conditions: in vivo
# [56] = tested on: Rattus norvegicus; assay: Toxicity in Sprague-Dawley rat assessed as sedation at 90 mg/kg, po after 3 hrs relative to control; type: organism-based; parameters: dose 90 mg/kg, route oral; conditions: in vivo
# [57] = tested on: Rattus norvegicus; assay: Toxicity in Sprague-Dawley rat assessed as sedation at 90 mg/kg, po after 4 hrs relative to control; type: organism-based; parameters: dose 90 mg/kg, route oral; conditions: in vivo
# [58] = tested on: Rattus norvegicus; assay: Toxicity in Sprague-Dawley rat assessed as sedation at 90 mg/kg, po after 5 hrs relative to control; type: organism-based; parameters: dose 90 mg/kg, route oral; conditions: in vivo
# [59] = tested on: Mus musculus; assay: Analgesic activity in naloxone treated mouse assessed as withdrawal latency at 12.5 to 75 mg/kg, po; type: functional, organism-based
# [60] = tested on: Mus musculus; assay: Analgesic activity in mouse assessed as withdrawal latency at 12.5 to 75 mg/kg, po by Haffner tail clamp method; type: functional, organism-based
smiles,measurement,setting,value
C=CCn1c(=O)n(-c2ccc3c(c2)OCO3)c2ncccc21,Activity,[1],>34 mm
same,Activity,[2],>50 mm
same,Time,[3],0.1 s
same,Time,[4],3.8 s
same,Time,[5],5.3 s
same,Time,[6],3.9 s
same,Time,[7],0 s
same,Time,[8],8.8 s
same,Time,[9],7.3 s
same,Time,[10],11.6 s
same,Time,[11],7.1 s
same,Time,[12],6.2 s
same,Time,[13],13.5 s
same,Time,[14],21.7 s
same,Time,[15],24.4 s
same,Time,[16],28.1 s
same,Time,[17],24.5 s
same,Activity,[18],28.8 mmHg
same,Activity,[19],44.4 mmHg
same,Activity,[20],74.4 mmHg
same,Activity,[21],40.5 mmHg
same,Activity,[22],52.3 mmHg
same,Activity,[23],88.5 mmHg
same,Activity,[24],33.4 mmHg
same,Activity,[25],47.8 mmHg
same,Activity,[26],66.6 mmHg
same,Activity,[27],38.4 mmHg
same,Activity,[28],71.1 mmHg
same,Activity,[29],79.3 mmHg
same,inhibition in vivo at 30 mg/kg,[30],42%
same,inhibition in vivo at 50 mg/kg,[31],78.2%
CCC(=O)O[C@](Cc1ccccc1)(c1ccccc1)[C@H](C)CN(C)C [PROPOXYPHENE],Activity,[32],>25 mm
same,Activity,[33],40 mm
same,Time,[34],-3.2 s
same,Time,[35],-2.6 s
same,Time,[36],-4.4 s
same,Time,[37],-0.8 s
same,Time,[38],0.1 s
same,Time,[39],-3 s
same,Time,[40],-0.8 s
same,Time,[41],-2.4 s
same,Time,[42],-0.8 s
same,Time,[43],-1.1 s
same,Time,[44],41.9 s
same,Time,[45],30 s
same,Time,[46],24.5 s
same,Time,[47],15 s
same,Time,[48],3.6 s
same,Time,[49],40.6 s
same,Time,[50],42 s
same,Time,[51],40.7 s
same,Time,[52],36.4 s
same,Time,[53],10.5 s
same,Activity,[54],Toxic
same,Activity,[55],Toxic
same,Activity,[56],Toxic
same,Activity,[57],Toxic
same,Activity,[58],Toxic
same,Activity,[59],inactive
same,Activity,[60],Active
same,inhibition in vivo at 30 mg/kg,[30],23%
same,inhibition in vivo at 50 mg/kg,[31],56.2%
O=c1[nH]c2cccnc2n1-c1ccc2c(c1)OCO2,Activity,[1],>34 mm
same,Activity,[2],>50 mm
same,Time,[3],1.5 s
same,Time,[4],2.1 s
same,Time,[5],-0.1 s
same,Time,[6],1.3 s
same,Time,[7],0.4 s
same,Time,[8],2 s
same,Time,[9],3.9 s
same,Time,[10],2.8 s
same,Time,[11],2.3 s
same,Time,[12],-0.2 s
same,Time,[13],6 s
same,Time,[14],15 s
same,Time,[15],20.4 s
same,Time,[16],20 s
same,Time,[17],18.3 s
same,Activity,[59],inactive
same,Activity,[60],Active
same,inhibition in vivo at 30 mg/kg,[30],37%
same,inhibition in vivo at 50 mg/kg,[31],68.3%

# From ChEMBL document CHEMBL3244164, “Synthesis and analgesic activity of 1,3-dihydro-3-(substituted phenyl)imidazo[4,5-b]pyridin-2-ones and 3-(substituted phenyl)-1,2,3-triazolo[4,5-b]pyridines” (J Med Chem, 1978)
